In patent US9249115B2, “N,N1 substituted piperazines having combined antiaggregant, anticoagulant and vasodilatory activity, and method for producing same” (Vertex Closed Joint Stock Company, priority 2011, dated 2016):

Assays:
[1] = test system: ADP-induced thrombocyte aggregation; assay: ADP-induced thrombocyte aggregation, donor human thrombocyte enriched plasm; format: cell-based; settings: ADP inductor; for MA, %: human thrombocyte plasm
Method in brief: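 Citrated donor human platelet-rich plasma, normalized to 200-250×10^9/L platelets, was preincubated with compound in Tris-HCl pH 7.4 for 5 min at 37 °C. Aggregation induced by ADP was followed for 3 min by light transmission with stirring at 1200 rpm. Maximum amplitude was taken as % transmittance relative to platelet-free plasma.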

[2] = test system: thrombocyte depleted plasm coagulation; assay: Activated partial thromboplastin time (APTT), anticoagulant properties; format: biochemical, human; settings: for APTT: thrombocyte depleted plasm

SMILES: O=C(O)/C=C/c1ccc(Cn2ccnc2)cc1 [Ozagrel, reference compound]
- MA, % ([1]; 1.25 mmol/L): 12.9 ± 2.1%
- MA, % ([1]; 2.50 mmol/L): 10.6 ± 2.5%
- MA, % ([1]; 5.0 mmol/L): 9.6 ± 2.5%
- MA, % ([1]; 7.5 mmol/L): 4.2 ± 1.2%
- inhibition at 1250 µM ([1]; Homo sapiens, 1.25 mmol/L, read-out: (MA0-MAx): MA0 * 100%): 2.3%
- inhibition at 2500 µM ([1]; Homo sapiens, 2.50 mmol/L, read-out: (MA0-MAx): MA0 * 100%): 19.7%
- inhibition at 5000 µM ([1]; Homo sapiens, 5.0 mmol/L, read-out: (MA0-MAx): MA0 * 100%): 63.6%
- inhibition at 7500 µM ([1]; Homo sapiens, 7.5 mmol/L, read-out: (MA0-MAx): MA0 * 100%): 68.2%
- (APTTx-APTT0): APTT0 * 100% ([2]; 2.5 mmol/L): 7.2%
- APTT ([2]; 2.5 mmol/L): 51.8 ± 1.7 s
- (APTTx-APTT0): APTT0 * 100% ([2]; 4.1 mmol/L): 10.0%
- APTT ([2]; 4.1 mmol/L): 53.1 ± 3.0 s
- (APTTx-APTT0): APTT0 * 100% ([2]; 8.3 mmol/L): 19.9%
- APTT ([2]; 8.3 mmol/L): 57.9 ± 2.5 s
- (APTTx-APTT0): APTT0 * 100% ([2]; 12.5 mmol/L): 29.8%
- APTT ([2]; 12.5 mmol/L): 62.7 ± 2.1 s
